# Results taken from US9695150B2, “Crystalline form of a substituted quinoline compound and pharmaceutical compositions thereof” (Sunshine Lake Pharma Co., Ltd., priority 2015, dated 2017).
# What was measured:
# [1] = Stability test (impurity contents by HPLC after storage of the solid); assay type: physicochemical; settings: p-toluenesulfonate
# Description: A sample of crystalline form C of compound (I) (100˜200 mg) was placed on a watching glass in the form of a thin layer (thickness ≦5 mm). The samples were exposed to the following conditions: high temperature (60±2° C.) for 10 days; high humidity (25±2° C., 90%±5% relative humidity) for 10 days; illumination condition (visible light 4500 lx±500 lx with ultraviolet light not lower than 0.7 W·h/m^2, 25±2° C., 60%±5% relative humidity) for 10 days; and room temperature (30±2° C., 65%±5% relative humidity) for 10 days, respectively. The impurity contents in the samples were determined at different time points (0, 5 and 10 days) by high performance liquid chromatography (HPLC), and the absorption peaks were normalized relative to the highest peak (corresponds to compound I) which is set to 100%.
# [2] = as above; assay type: physicochemical; settings: p-toluenesulfonate; for Increase of the impurity contents: illuminating the samples for 10 days
# [3] = Hygroscopicity test; assay type: physicochemical; settings: p-toluenesulfonate; for Hygroscopicity (in words): conclusion from Table 4; for Hygroscopic capacity %: 25±1° C.
# Description: A glass weighing bottle equipped with a stopper was tarred and the weight was recorded as m1. Compound (I) in crystalline form C or amorphous form (about 1.0 g) was placed in the tared weighing bottle and capped with the stopper. The total weight was then recorded as m2. […] The weighing bottle capped with its stopper was weighed on day 5 and day 10 and the weight was recorded as m3.
# [4] = Pharmacokinetics test in beagle dogs; assay type: in vivo
# Description: The pharmacokinetic properties of amorphous Compound (I) or the crystalline form C of Compound (I) disclosed herein are assessed in beagle dogs. The LC/MS/MS system used in the analysis consists of an Agilent 1200 Series vacuum degasser, binary pump, well-plate autosampler, thermostatted column compartment, the Agilent G6430 Triple Quadrupole Mass Spectrometer with an electrosprayionization (ESI) source. Quantitative analysis was carried out using MRM mode. The parameters for MRM transitions are in the Table A.
# An Agilent XDB-C18, 2.1×30 mm, 3.5 μM column was used for the analysis. 5 μL of the samples were injected. Analysis condition: The mobile phase was 0.1% formic acid in water (A) and 0.1% formic acid in methanol (B). The flow rate was 0.4 mL/min. And the gradient of Mobile phase was in the Table B.
# Alternatively, an Agilent 6330 series LC/MS/MS spectrometer equipped with G1312A binary pumps, a G1367A autosampler and a G1314C UV detector were used in the analysis. An ESI source was used on the LC/MS/MS spectrometer. The analysis was done in positive ion mode as appropriate and the MRM transition for each analyte was optimized using standard solution. A Capcell MP-C18 100×4.6 mm I.D., […] column (Phenomenex, Torrance, Calif., USA) was used during the analysis. The mobile phase was 5 mM ammonia acetate, 0.1% MeOH in water (A): 5 mM ammonia acetate, 0.1% MeOH in acetonitrile (B) (70/30, v/v). The flow rate was 0.6 mL/min. Column was maintained at ambient temperature. 20 μL of the samples were injected.
# The capsule of the crystalline form C or the amorphous of Compound (I) mixed with adjuvants respectively was administered by gavage to beagle dogs in a dose of 7 or 10 mg/kg. The blood samples (0.3 mL) were drawn at 0.25, 0.5, 1.0, 2.0, 3.0, 4.0, 6.0, 8.0, 12 and 24 hour time points or 0.083, 0.25, 0.5, 1.0, 2.0, 4.0, 6.0, 8.0 and 24 hour time points and centrifuged at 3,000 or 4000 rpm for 2 to 10 min. The plasma solutions were collected, and analyzed by LC/MS/MS as described above. The pharmacokinetic parameters were calculated according to non-compartment model using WinNonlin procedure.
# [5] = high temperature (60±2° C.), 0 day
# [6] = high temperature (60±2° C.), 5 days
# [7] = illuminating condition (visible light 4500 lx±500 lx with UV, 25±2° C., 60%±5% RH), 0 day
# [8] = illuminating condition (visible light 4500 lx±500 lx with UV, 25±2° C., 60%±5% RH), 5 days
# [9] = room temperature (30±2° C., 65%±5% relative humidity), 5 days
# [10] = room temperature (30±2° C., 65%±5% relative humidity), 10 days
# [11] = high humidity (25±2° C., 90%±5% relative humidity), 0 day
# [12] = high humidity (25±2° C., 90%±5% relative humidity), 5 days
# [13] = high humidity (25±2° C., 90%±5% relative humidity), 10 days
# [14] = high temperature (60±2° C.), 10 days
# [15] = illuminating condition (visible light 4500 lx±500 lx with UV, 25±2° C., 60%±5% RH), 10 days
# [16] = listed as amorphous Compound (I)
# [17] = room temperature (30±2° C., 65%±5% relative humidity), 0 day
# [18] = dog, plasma, po, capsule by gavage, dose 9.9 mg/kg (Form C), 9.7 mg/kg (Amorphous)
"The impurity contents [1, 5] [%]","The impurity contents [1, 6] [%]","The impurity contents [1, 7] [%]","The impurity contents [1, 8] [%]","The impurity contents [1, 9] [%]","The impurity contents [1, 10] [%]","The impurity contents [2, 11] [%]","The impurity contents [2, 12] [%]","The impurity contents [2, 13] [%]","The impurity contents [2, 14] [%]","The impurity contents [2, 15] [%]","The impurity contents [2, 17] [%]",Hygroscopic capacity % ([3]; standing time 5 d) [%],Hygroscopic capacity % ([3]; standing time 10 d) [%],Compound,also measured
0.14,0.13,0.14,0.36,0.07,0.07,0.14,0.11,0.07,0.10,0.56,0.14,7.74,8.48,"Cc1c(C(=O)Nc2ccc(Oc3ccnc4cc(OCC(C)(C)O)ccc34)c(F)c2)c(=O)n(-c2ccccc2)n1C.Cc1ccc(S(=O)(=O)O)cc1 [Amorphous, N-(3-fluoro-4-((7-(2-hydroxy-2-methylpropoxy)quinolin-4-yl)oxy)phenyl)-1,5-dimethyl-3-oxo-2-phenyl-2,3-dihydro-1H-pyrazole-4-carboxamide p-toluenesulfonate]","Increase of the impurity contents [2, 16]: 0.42%; Hygroscopicity (in words) [3, 16]: hygroscopic"
2.00,1.97,2.00,1.97,1.90,1.91,2.00,1.94,1.92,1.89,2.14,2.00,0.22,0.43,"Cc1c(C(=O)Nc2ccc(Oc3ccnc4cc(OCC(C)(C)O)ccc34)c(F)c2)c(=O)n(-c2ccccc2)n1C.Cc1ccc(S(=O)(=O)O)cc1 [Form C, N-(3-fluoro-4-((7-(2-hydroxy-2-methylpropoxy)quinolin-4-yl)oxy)phenyl)-1,5-dimethyl-3-oxo-2-phenyl-2,3-dihydro-1H-pyrazole-4-carboxamide p-toluenesulfonate]","Increase of the impurity contents ([2]; listed as crystalline form C of Compound (I)): 0.14%; Hygroscopicity (in words) ([3]; listed as crystalline form C of compound (I)): not hygroscopic; Exposure and bioavailability in vivo (in words) ([4]; Cmax, AUC0-24h and AUC0-∞ compared with amorphous Compound (I)): good exposure and bioavailability; AUC(0-inf) [4, 18]: 90100 ng·h/mL; Cmax [4, 18]: 4760 ng/mL; Tmax [4, 18]: 4 h; half-life [4, 18]: 14.6 h; AUC(0-t) ([4]; dog, plasma, po, capsule by gavage, dose 9.9 mg/kg (Form C), 9.7 mg/kg (Amorphous), read-out: AUC0-24 h): 59700 ng·h/mL"
